The source of these data is US20110039816A1, “THERAPEUTIC SUBSTANCE, PHARMACEUTICAL COMPOSITION, HELICOBACTER PYLORI GROWTH INHIBITOR AND METHOD FOR CONDUCTING ANTI-HELICOBACTER THERAPY” (priority 2007, published 2011).

Entries after “also recorded” stand apart in the source; their conditions may differ.

The assay deals with H. pylori. The assay can be described thus: Effect of comparator drugs and CGNC on the growth of H. pylori patient strains. Type of assay: cell-based, Helicobacter pylori. Further details: key to Effect on the growth of H. pylori: (+) - inhibition of growth; (−) - no inhibition of growth. Particulars: for Effect on growth of H. pylori: strains 782, 785, 786, 787. As to the method:
The effect of the following doses of CGNC was examined: 50, 100, and 300 mg/ml. Bacteriological methods were used to conduct the study. Three doses of CGNC (50, 100 and 300 mg/ml) were used for analysis of the CGNC effect on the growth of H. pylori. Serial dilutions, of dense nutrient media containing an increasing concentration of the test substance were set up. Isolates of H. pylori inoculated on standard for this type of bacteria mediums (without CGNC) were used to control the microbial growth. The effect of the test substance was compared with the effect of the placebo (sterile saline solution—0.15 M NaCl, pH 7.0-7.2). In a comparative experiment, the effect of the antimicrobials, amoxicillin (20 μg/ml) and metronidazole (80 μg/ml), were evaluated.
Metronidazole and amoxicillin, the most common used therapeutical substances in combined anti-helicobacter therapy, were chosen as comparator-drugs. H. pylori isolated from patients (No. 782, 785, 786, 787), were used to compare the effect of CGNC (300 mg/ml), amoxicillin (20 μg/ml) and metronidazole (80 μg/ml) (Table 3). These strains were isolated from patients with chronic gastroduodenitis, gastritis associated with gastric stump, duodenal ulcer and reflux esophagitis.

In the case of `CC1(C)S[C@@H]2[C@H](NC(=O)[C@H](N)c3ccc(O)cc3)C(=O)N2[C@H]1C(=O)O` [Amoxicillin], the “Effect on growth of H. pylori” value (amoxicillin 20 μg/ml) is “inhibited the growth; also recorded: inhibition of growth occurred”. Also, the “Effect on the growth of H. pylori” value is, setting by setting: (strain 782 (CGD), Amoxicillin 20 μg/ml) “+”; (strain 785 (gastritis associated with gastric stump), Amoxicillin 20 μg/ml) “+”; (strain 786 (DU, reflux esophagitis), Amoxicillin 20 μg/ml) “+”; (strain 787 (CGD), Amoxicillin 20 μg/ml) “+”.
In the case of `Cc1ncc([N+](=O)[O-])n1CCO` [Metronidazole], for the setting “metronidazole 80 μg/ml”, the “Effect on growth of H. pylori” value is listed as “did not have an inhibiting effect; also recorded: did not inhibit the growth”. For the same compound, the “Effect on the growth of H. pylori” value (strain 782 (CGD), Metronidazole 80 μg/ml) is “−”; the “Effect on the growth of H. pylori” value (strain 785 (gastritis associated with gastric stump), Metronidazole 80 μg/ml) is “−”; the “Effect on the growth of H. pylori” value (strain 786 (DU, reflux esophagitis), Metronidazole 80 μg/ml) is on record as “−”; the “Effect on the growth of H. pylori” value (strain 787 (CGD), Metronidazole 80 μg/ml) is “−”.
